Reference: ChEMBL document CHEMBL1681717, “Design and synthesis of a novel, orally active, brain penetrant, tri-substituted thiophene based JNK inhibitor” (Bioorg Med Chem Lett, 2011)
pIC50: −log10 of the molar value. Blank lines part the entries; values can stand above or below the compound they belong to.

How the values were obtained:
[1] = target: Cyclin-dependent kinase 5/CDK5 activator 1 (Homo sapiens) (UniProt Q00535+Q15078); assay: Inhibition of CDK5/p25 at 10 uM; assay type: protein-complex assay
[2] = target: Mitogen-activated protein kinase 14 (Homo sapiens, UniProt Q16539); assay: Inhibition of recombinant p38alpha after 60 mins by TR-FRET assay
Chain of Mitogen-activated protein kinase 14 (Q16539 whole entry): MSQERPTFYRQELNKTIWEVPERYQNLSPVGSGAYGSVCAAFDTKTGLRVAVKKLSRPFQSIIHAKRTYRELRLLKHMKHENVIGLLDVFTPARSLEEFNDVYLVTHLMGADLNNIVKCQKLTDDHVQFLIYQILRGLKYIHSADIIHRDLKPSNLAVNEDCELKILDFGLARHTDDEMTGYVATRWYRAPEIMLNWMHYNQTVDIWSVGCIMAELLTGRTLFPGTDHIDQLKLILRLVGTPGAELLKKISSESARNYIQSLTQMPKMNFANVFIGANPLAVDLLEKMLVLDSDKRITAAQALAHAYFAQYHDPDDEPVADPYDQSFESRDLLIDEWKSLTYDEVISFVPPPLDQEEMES

[3] = target: Serine/threonine-protein kinase 16 (Homo sapiens) (UniProt O75716); assay: Inhibition of STK16 at 10 uM
Chain of Serine/threonine-protein kinase 16 (Homo sapiens) (O75716 whole entry): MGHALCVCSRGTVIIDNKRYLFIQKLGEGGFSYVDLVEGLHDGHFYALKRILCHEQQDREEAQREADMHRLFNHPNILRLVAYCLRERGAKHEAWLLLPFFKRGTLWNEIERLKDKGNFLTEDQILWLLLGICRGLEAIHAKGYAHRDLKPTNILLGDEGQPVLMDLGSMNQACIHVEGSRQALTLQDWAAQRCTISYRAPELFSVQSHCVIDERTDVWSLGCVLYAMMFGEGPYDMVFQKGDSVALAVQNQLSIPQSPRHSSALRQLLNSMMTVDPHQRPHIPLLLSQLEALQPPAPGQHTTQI

[4] = target: Dual specificity protein kinase CLK1 (Homo sapiens) (UniProt P49759); assay: Inhibition of CLK1 at 10 uM
[5] = target: Cyclin-dependent kinase 1/cyclin B (Homo sapiens) (UniProt P06493+P14635+Q8WWL7+O95067); assay: Inhibition of CDK1/cyclin B at 10 uM; assay type: protein-complex assay
[6] = target: Serine/threonine-protein kinase PAK 4 (Homo sapiens) (UniProt O96013); assay: Inhibition of PAK4 at 10 uM
[7] = target: cAMP-dependent protein kinase catalytic subunit alpha (Homo sapiens) (UniProt P17612); assay: Inhibition of PRKACA at 10 uM
MDR1 [8] = assay: Apparent permeability of the compound from apical to basolateral direction in MDCK2 cells expressing MDR1; assay type: ADME, cell-based, Canis lupus familiaris, MDCK-II; conditions: dog, MDCK-MDR1
MDR1 [9] = assay: Efflux ratio of permeability from basolateral to apical side over apical to basolateral side in MDCK2 cells expressing MDR1; assay type: ADME, cell-based, Canis lupus familiaris, MDCK-II; conditions: dog, MDCK-MDR1
[10] = target: T1, Mitogen-activated protein kinase 10 (Homo sapiens, UniProt P53779); assay: Inhibition of recombinant JNK3 after 60 mins by TR-FRET assay
T1 sequence (P53779 whole entry): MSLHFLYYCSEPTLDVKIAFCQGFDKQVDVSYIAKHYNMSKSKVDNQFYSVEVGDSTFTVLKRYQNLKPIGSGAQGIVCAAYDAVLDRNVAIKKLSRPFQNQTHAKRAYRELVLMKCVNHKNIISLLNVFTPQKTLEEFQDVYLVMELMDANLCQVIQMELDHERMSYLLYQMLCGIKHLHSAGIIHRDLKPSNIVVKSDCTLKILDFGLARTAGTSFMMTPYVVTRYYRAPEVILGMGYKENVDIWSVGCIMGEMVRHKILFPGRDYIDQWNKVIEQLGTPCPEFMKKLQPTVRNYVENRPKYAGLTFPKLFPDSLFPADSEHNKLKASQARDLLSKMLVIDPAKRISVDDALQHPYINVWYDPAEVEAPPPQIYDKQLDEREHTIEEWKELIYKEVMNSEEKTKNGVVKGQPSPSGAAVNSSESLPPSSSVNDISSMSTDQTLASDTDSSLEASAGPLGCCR

[11] = target: Cyclin-dependent kinase 2/cyclin A (Homo sapiens) (UniProt P24941+P20248+P78396); assay: Inhibition of CDK2/cyclin A at 10 uM; assay type: protein-complex assay
[12] = target: T2, Mitogen-activated protein kinase 1 (Homo sapiens, UniProt P28482); assay: Inhibition of recombinant ERK2 after 60 mins by TR-FRET assay
T2 sequence (P28482 whole entry): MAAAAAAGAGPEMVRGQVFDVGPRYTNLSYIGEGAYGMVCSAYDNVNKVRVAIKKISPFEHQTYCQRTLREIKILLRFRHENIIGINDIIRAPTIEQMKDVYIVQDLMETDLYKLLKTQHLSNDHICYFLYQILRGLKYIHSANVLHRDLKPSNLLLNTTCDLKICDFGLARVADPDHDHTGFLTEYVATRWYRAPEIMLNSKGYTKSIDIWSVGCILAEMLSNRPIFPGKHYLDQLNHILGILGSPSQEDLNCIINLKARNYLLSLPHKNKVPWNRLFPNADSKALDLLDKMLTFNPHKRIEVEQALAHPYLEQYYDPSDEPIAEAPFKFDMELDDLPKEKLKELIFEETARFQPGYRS

[13] = target: T1, Mitogen-activated protein kinase 10; conditions: 10 uM
Description: Inhibition of MAPK10 at 10 uM

[14] = target: Insulin receptor (Homo sapiens) (UniProt P06213); assay: Inhibition of INSR at 10 uM
[15] = target: PI3-kinase p110-alpha/p85-alpha (Homo sapiens) (UniProt P27986+P42336); assay: Inhibition of PIK3CA/PIK3R1 at 10 uM; assay type: protein-complex assay
[16] = target: Protein kinase C beta type (Homo sapiens) (UniProt P05771); assay: Inhibition of PRKCB1 at 10 uM
[17] = target: Calcium/calmodulin-dependent protein kinase type II subunit alpha (Homo sapiens) (UniProt Q9UQM7); assay: Inhibition of CAMK2A at 10 uM
[18] = target: Receptor-type tyrosine-protein kinase FLT3 (Homo sapiens) (UniProt P36888); assay: Inhibition of FLT3 at 10 uM
[19] = target: Glycogen synthase kinase-3 beta (Homo sapiens) (UniProt P49841); assay: Inhibition of GSK3B at 10 uM
[20] = target: Tyrosine-protein kinase SYK (Homo sapiens) (UniProt P43405); assay: Inhibition of SYK at 10 uM
[21] = target: Platelet-derived growth factor receptor alpha (Homo sapiens) (UniProt P16234); assay: Inhibition of PDGFRA at 10 uM
[22] = target: Serine/threonine-protein kinase PLK2 (Homo sapiens) (UniProt Q9NYY3); assay: Inhibition of PLK2 at 10 uM
[23] = target: Dual specificity tyrosine-phosphorylation-regulated kinase 1B (Homo sapiens) (UniProt Q9Y463); assay: Inhibition of DYRK1B at 10 uM
[24] = target: Serine/threonine-protein kinase MARK2 (Homo sapiens) (UniProt Q7KZI7); assay: Inhibition of MARK2 at 10 uM
[25] = target: Serine/threonine-protein kinase 3 (Homo sapiens) (UniProt Q13188); assay: Inhibition of STK3 at 10 uM
[26] = target: Tyrosine-protein kinase Lck (Homo sapiens) (UniProt P06239); assay: Inhibition of LCK at 10 uM
[27] = target: Dual specificity protein kinase TTK (Homo sapiens) (UniProt P33981); assay: Inhibition of TTK at 10 uM
[28] = target: Proto-oncogene tyrosine-protein kinase receptor Ret (Homo sapiens) (UniProt P07949); assay: Inhibition of RET at 10 uM
[29] = target: Tyrosine-protein kinase JAK1 (Homo sapiens) (UniProt P23458); assay: Inhibition of JAK1 at 10 uM
[30] = target: Leucine-rich repeat serine/threonine-protein kinase 2 (Homo sapiens) (UniProt Q5S007); assay: Inhibition of LRRK2 at 10 uM
[31] = target: Rho-associated protein kinase 2 (Homo sapiens) (UniProt O75116); assay: Inhibition of ROCK2 at 10 uM
[32] = target: Serine/threonine-protein kinase Chk1 (Homo sapiens) (UniProt O14757); assay: Inhibition of CHEK1 at 10 uM
[33] = target: Protein-tyrosine kinase 2-beta (Homo sapiens) (UniProt Q14289); assay: Inhibition of PTK2B at 10 uM
Chain of Protein-tyrosine kinase 2-beta (Homo sapiens) (Q14289 whole entry, looked up): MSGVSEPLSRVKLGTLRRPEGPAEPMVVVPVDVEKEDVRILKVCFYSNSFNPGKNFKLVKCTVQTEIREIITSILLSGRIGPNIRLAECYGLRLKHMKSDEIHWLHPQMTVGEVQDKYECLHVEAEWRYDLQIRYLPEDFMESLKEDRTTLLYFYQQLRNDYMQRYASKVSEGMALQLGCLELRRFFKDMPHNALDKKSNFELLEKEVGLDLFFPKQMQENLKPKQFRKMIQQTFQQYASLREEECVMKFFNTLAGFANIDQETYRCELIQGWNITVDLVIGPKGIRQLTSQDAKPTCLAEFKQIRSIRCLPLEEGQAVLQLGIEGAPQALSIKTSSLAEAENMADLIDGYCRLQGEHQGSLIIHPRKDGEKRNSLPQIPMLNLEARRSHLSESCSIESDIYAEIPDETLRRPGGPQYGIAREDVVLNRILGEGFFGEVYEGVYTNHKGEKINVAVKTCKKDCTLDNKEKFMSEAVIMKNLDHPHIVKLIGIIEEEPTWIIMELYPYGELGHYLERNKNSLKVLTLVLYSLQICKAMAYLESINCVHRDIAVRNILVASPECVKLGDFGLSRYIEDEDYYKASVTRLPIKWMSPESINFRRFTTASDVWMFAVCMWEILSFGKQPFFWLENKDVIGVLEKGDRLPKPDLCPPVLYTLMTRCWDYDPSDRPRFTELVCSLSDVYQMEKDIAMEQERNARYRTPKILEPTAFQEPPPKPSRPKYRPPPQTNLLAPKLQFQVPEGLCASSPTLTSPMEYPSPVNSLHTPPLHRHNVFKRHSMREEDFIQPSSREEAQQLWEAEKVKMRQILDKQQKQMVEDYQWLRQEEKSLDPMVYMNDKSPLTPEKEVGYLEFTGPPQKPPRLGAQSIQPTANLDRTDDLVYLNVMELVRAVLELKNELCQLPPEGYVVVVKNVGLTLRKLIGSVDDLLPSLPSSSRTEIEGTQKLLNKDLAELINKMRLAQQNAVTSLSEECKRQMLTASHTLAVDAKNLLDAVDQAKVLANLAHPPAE

[34] = target: Receptor tyrosine-protein kinase erbB-4 (Homo sapiens) (UniProt Q15303); assay: Inhibition of ERBB4 at 10 uM
[35] = target: Serine/threonine-protein kinase PLK1 (Homo sapiens) (UniProt P53350); assay: Inhibition of PLK1 at 10 uM
[36] = test system: RAF proto-oncogene serine/threonine-protein kinase (Homo sapiens), P04049 [Y340D,Y341D]; assay: Inhibition of RAF1 Y340D, Y341D mutant at 10 uM
Chain of RAF proto-oncogene serine/threonine-protein kinase (Homo sapiens), P04049 [Y340D,Y341D] (P04049 whole entry Y340D/Y341D): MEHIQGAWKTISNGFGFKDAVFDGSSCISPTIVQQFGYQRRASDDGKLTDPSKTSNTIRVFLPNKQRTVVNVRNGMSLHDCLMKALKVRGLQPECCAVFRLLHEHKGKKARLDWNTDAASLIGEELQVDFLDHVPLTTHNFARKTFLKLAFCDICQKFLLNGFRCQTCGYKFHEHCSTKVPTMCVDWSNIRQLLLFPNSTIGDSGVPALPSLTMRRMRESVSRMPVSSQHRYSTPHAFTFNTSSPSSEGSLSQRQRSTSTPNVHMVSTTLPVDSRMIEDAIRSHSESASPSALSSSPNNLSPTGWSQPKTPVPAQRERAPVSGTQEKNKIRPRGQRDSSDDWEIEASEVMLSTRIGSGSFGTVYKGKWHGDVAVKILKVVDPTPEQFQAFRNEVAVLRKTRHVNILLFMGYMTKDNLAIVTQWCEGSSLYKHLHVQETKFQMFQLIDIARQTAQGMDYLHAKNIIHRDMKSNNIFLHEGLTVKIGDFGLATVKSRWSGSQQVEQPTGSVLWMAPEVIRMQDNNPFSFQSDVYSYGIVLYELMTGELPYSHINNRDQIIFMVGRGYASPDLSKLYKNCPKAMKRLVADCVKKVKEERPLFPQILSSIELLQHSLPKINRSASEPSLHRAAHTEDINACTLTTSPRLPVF

[37] = target: Tyrosine-protein kinase ABL1 (Homo sapiens) (UniProt P00519); assay: Inhibition of ABL1 at 10 uM
[38] = target: Mitogen-activated protein kinase 8 (Homo sapiens, UniProt P45983); assay: Inhibition of recombinant JNK1 after 60 mins by TR-FRET assay
Chain of Mitogen-activated protein kinase 8 (P45983 whole entry): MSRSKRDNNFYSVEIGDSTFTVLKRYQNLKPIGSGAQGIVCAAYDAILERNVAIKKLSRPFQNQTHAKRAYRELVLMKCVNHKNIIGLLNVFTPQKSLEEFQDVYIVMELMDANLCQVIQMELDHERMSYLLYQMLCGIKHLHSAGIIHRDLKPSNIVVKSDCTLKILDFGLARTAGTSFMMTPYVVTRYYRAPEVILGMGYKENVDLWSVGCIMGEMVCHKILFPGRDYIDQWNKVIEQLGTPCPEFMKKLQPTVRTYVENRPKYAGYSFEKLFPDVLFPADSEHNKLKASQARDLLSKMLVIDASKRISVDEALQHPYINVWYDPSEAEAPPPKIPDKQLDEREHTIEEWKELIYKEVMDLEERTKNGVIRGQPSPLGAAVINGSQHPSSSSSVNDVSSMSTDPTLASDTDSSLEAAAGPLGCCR

[39] = Oxidative metabolic stability in mouse liver microsomes assessed as compound remaining at 5 uM after 120 mins; assay type: ADME, Microsome; conditions: read-out: Stability
[40] = target: Mitogen-activated protein kinase 9 (Homo sapiens, UniProt P45984); assay: Inhibition of recombinant JNK2 after 60 mins by TR-FRET assay
Chain of Mitogen-activated protein kinase 9 (P45984 whole entry): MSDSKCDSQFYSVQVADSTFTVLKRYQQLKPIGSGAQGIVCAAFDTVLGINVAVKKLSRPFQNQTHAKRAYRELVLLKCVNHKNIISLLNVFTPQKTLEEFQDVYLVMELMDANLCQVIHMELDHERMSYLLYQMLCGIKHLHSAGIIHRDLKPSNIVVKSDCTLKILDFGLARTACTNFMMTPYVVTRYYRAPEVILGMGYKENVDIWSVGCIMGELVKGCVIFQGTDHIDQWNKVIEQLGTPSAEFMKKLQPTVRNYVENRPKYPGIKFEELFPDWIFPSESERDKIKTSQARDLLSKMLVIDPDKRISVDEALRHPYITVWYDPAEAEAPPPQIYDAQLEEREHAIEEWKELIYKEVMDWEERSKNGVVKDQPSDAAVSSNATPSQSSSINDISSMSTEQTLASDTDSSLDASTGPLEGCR

[41] = target: Aurora kinase A (Homo sapiens) (UniProt O14965); assay: Inhibition of Aurora A at 10 uM
Mus musculus = assay: Inhibition of kainic acid-induced JNK activation in FVB mouse hippocampus assessed as reduction of phosphorylated c-jun level at 300 mg/kg, po administered 1 hr before kainic acid challenge measured after 4 hrs; assay type: functional
[42] = Oxidative metabolic stability in human liver microsomes assessed as compound remaining at 5 uM after 120 mins; assay type: ADME, Microsome; conditions: read-out: Stability
[43] = target: RAC-alpha serine/threonine-protein kinase (Homo sapiens) (UniProt P31749); assay: Inhibition of AKT1 at 10 uM
[44] = target: T2, Mitogen-activated protein kinase 1; assay: Inhibition of MAPK1 at 10 uM
[45] = target: Serine/threonine-protein kinase PLK3 (Homo sapiens) (UniProt Q9H4B4); assay: Inhibition of PLK3 at 10 uM
[46] = target: Receptor-interacting serine/threonine-protein kinase 2 (Homo sapiens) (UniProt O43353); assay: Inhibition of RIPK2 at 10 uM
[47] = target: Macrophage colony-stimulating factor 1 receptor (Homo sapiens) (UniProt P07333); assay: Inhibition of CSF1R at 10 uM
Chain of Macrophage colony-stimulating factor 1 receptor (Homo sapiens) (P07333 whole entry): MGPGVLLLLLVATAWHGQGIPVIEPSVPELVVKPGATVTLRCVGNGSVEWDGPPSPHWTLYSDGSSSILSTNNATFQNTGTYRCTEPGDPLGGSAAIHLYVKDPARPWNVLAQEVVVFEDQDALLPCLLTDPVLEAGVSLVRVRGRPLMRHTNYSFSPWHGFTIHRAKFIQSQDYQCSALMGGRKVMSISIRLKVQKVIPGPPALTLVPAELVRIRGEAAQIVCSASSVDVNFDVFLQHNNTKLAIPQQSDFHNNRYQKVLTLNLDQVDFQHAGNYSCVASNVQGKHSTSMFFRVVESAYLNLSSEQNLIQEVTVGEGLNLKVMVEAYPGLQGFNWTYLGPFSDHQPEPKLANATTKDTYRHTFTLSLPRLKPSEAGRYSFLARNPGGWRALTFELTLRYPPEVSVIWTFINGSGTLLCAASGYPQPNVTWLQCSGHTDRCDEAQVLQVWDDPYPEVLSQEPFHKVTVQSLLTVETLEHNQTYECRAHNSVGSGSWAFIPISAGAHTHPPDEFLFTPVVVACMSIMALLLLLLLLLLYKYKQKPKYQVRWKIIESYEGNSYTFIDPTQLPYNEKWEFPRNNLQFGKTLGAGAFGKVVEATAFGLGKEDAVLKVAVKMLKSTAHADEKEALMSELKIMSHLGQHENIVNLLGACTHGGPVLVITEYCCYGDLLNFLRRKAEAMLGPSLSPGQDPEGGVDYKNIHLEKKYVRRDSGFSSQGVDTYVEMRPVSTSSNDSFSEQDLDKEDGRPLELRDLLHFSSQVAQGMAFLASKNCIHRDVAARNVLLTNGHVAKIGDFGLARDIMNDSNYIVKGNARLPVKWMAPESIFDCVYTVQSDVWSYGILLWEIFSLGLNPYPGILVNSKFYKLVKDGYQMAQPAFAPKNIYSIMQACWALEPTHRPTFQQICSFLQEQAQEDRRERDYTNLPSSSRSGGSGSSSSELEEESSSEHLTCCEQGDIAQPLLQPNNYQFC

[48] = Solubility of the compound in hank's buffered salt solution; assay type: physicochemical

SMILES: O=C(CN1C(=O)CCc2ccccc21)Nc1scc(Cl)c1-c1ncn[nH]1
pIC50 [2]: < 4.30
Papp A→B (MDR1 [8]): 23.3 ×10⁻⁶ cm/s
efflux ratio (MDR1 [9]): 0.9
pIC50 [10]: 8.30
pIC50 [12]: < 4.30
pIC50 [38]: 8.40
remaining at 2 h, 5 µM [39]: 0%
pIC50 [40]: 8.05
remaining at 2 h, 5 µM [42]: 20%

SMILES: N#Cc1csc(NC(=O)CN2C(=O)CCc3ccccc32)c1-c1ncn[nH]1
pIC50 [2]: < 4.30
Papp A→B (MDR1 [8]): 18 ×10⁻⁶ cm/s
efflux ratio (MDR1 [9]): 4.1
pIC50 [10]: 8.22
pIC50 [12]: < 4.30
pIC50 [38]: 8.05
remaining at 2 h, 5 µM [39]: 37%
pIC50 [40]: 8.10
remaining at 2 h, 5 µM [42]: 39%

SMILES: Cc1csc(NC(=O)CN2C(=O)CCc3ccccc32)c1-c1ncn[nH]1
pIC50 [2]: < 4.30
Papp A→B (MDR1 [8]): 14.8 ×10⁻⁶ cm/s
efflux ratio (MDR1 [9]): 3.2
pIC50 [12]: < 4.30
pIC50 [38]: 7.49
remaining at 2 h, 5 µM [39]: 0%
pIC50 [40]: 7.51
remaining at 2 h, 5 µM [42]: 0%

Now from value to compound, other results behind:

inhibition [1]: 19%
pIC50 [2]: < 4.30
inhibition [3]: 29%
inhibition [4]: 7%
inhibition [5]: 14%
inhibition [6]: 1%
inhibition [7]: 3%
Papp A→B (MDR1 [8]): 27 ×10⁻⁶ cm/s
efflux ratio (MDR1 [9]): 1.6
pIC50 [10]: 7.96
inhibition [11]: 19%
pIC50 [12]: < 4.30
inhibition [13]: 96%
inhibition [14]: -2%
inhibition [15]: 13%
inhibition [16]: 3%
inhibition [17]: 6%
inhibition [18]: 12%
inhibition [19]: 25%
inhibition [20]: 19%
inhibition [21]: 2%
inhibition [22]: 1%
inhibition [23]: 29%
inhibition [24]: 9%
inhibition [25]: 3%
inhibition [26]: 11%
inhibition [27]: > 50%
inhibition [28]: 16%
inhibition [29]: 1%
inhibition [30]: 15%
inhibition [31]: 9%
inhibition [32]: 5%
inhibition [33]: -5%
inhibition [34]: -1%
inhibition [35]: 5%
inhibition [36]: 19%
inhibition [37]: 2%
pIC50 [38]: 7.85
remaining at 2 h, 5 µM [39]: 29%
pIC50 [40]: 7.37
inhibition [41]: 31%
remaining at 2 h, 5 µM [42]: 50%
inhibition [43]: 4%
inhibition [44]: 3%
inhibition [45]: -1%
inhibition [46]: 13%
inhibition [47]: 5%
SMILES: O=C(Cc1cccc2cnccc12)Nc1scc(Cl)c1-c1ncn[nH]1
inhibition in vivo at 300 mg/kg (Mus musculus): 51%

pIC50 [2]: < 4.30
Papp A→B (MDR1 [8]): 14.4 ×10⁻⁶ cm/s
pIC50 [12]: < 4.30
solubility [48]: 72 µM
pIC50 [40]: 4.64
SMILES: COC(=O)c1sccc1NC(=O)Cc1cccs1

pIC50 [2]: < 4.30
Papp A→B (MDR1 [8]): 16.1 ×10⁻⁶ cm/s
pIC50 [12]: < 4.30
remaining at 2 h, 5 µM [39]: 1%
pIC50 [40]: 6.90
remaining at 2 h, 5 µM [42]: 46%
SMILES: Cc1csc(NC(=O)Cc2cccc3ncccc23)c1-c1ncn[nH]1

pIC50 [2]: < 4.30
Papp A→B (MDR1 [8]): 13.3 ×10⁻⁶ cm/s
efflux ratio (MDR1 [9]): 4.6
pIC50 [10]: 8.15
pIC50 [12]: < 4.30
pIC50 [38]: 7.96
remaining at 2 h, 5 µM [39]: 48%
pIC50 [40]: 7.59
remaining at 2 h, 5 µM [42]: 62%
SMILES: N#Cc1csc(NC(=O)Cc2cccc3cnccc23)c1-c1ncn[nH]1
